Test results as given in patent US8309528B2, “Two pore channels as regulators of proliferation in cancer” (The Trustees of Columbia University in the City of New York, priority 2006, dated 2012).

Key:
human TREK-1 = biological target: T1, human TREK-1 (Homo sapiens, UniProt O95069); experiment: Patch clamp of TREK-1 current in CHO cells transfected with human TREK-1; format: cell-based; details: CHO cells heterologously expressing human TREK-1; ramp protocol -130 mV to +40 mV in 6 s
T1 construct: expressed in transfected cells; host or cells: CHO cells
T1 sequence (O95069 1-426): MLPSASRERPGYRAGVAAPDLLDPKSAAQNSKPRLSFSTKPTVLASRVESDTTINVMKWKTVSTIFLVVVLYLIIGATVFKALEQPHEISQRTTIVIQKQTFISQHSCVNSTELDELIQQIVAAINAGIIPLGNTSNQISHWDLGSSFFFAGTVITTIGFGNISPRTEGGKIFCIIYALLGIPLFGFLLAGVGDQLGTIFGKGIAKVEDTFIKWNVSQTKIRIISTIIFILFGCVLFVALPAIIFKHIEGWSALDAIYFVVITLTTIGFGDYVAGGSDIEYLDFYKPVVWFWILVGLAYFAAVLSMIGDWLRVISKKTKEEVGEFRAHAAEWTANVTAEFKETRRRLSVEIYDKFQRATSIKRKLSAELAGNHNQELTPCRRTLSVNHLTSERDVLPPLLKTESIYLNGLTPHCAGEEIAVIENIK
Experimental: (§1) FIG. 7. […] CHO cells were transfected with a plasmid encoding human TREK-1 and the current was studied by patch clamp. The current-voltage relation was determined using a ramp protocol that went from −130 mV to +40 mV in 6 s (after correction for the junction potential). Current was greater in the presence of meclofenamate. This is typical of 7 cells.
as §1, with “8.” for “7.”, “less” for “greater”, “trifluoperazine.” for “meclofenamate.”, “3” for “7”
(§2) CHO cells were transfected with a plasmid encoding human TREK-1 and the current was studied by patch clamp. The current-voltage relation was determined using a ramp protocol that went from −130 mV to +40 mV in 6 s (after correction for the junction potential). Current was greater in the presence of meclofenamate. This is typical of 7 cells.
as §2, with “less” for “greater”, “trifluoperazine.” for “meclofenamate.”, “3” for “7”

[1] = tested on: normal prostate epithelial cells (NPE) expressing TREK-1; experiment: MTT proliferation assay of normal prostate epithelial cells infected with TREK-1 adenovirus; format: cell-based; details: sipatrigine 10 μM; compared with NPE/TREK-1 and other groups; five paired experiments
Experimental: FIG. 3. Dominant-negative TREK-1 reduces proliferation of PC-3 cells. PC-3 cells were transfected with either dn-TREK (or a control vector (PEGFP) using GeneJammer (Stratagene) under standard conditions. Proliferation of these cells was measured using the MTT assay after the cells were plated at 1×10^5 cells/well in 96 well plates. Data are presented as the mean ±SEM of five experiments. * p<0.05 vs control and EGFP
FIG. 5. Expression of TREK-1 increases proliferation of normal prostate epithelial cells (NPE). Normal prostate epithelial cell cultures were obtained from Clonetics and infected with a TREK-1-containing adenovirus. Some virally infected cells were also treated with sipatrigine (10 μM), a TREK-1 blocker. Cell proliferation was assessed using the MTT assay as described in FIG. 3.
Normal prostate epithelial cell cultures were obtained from Clonetics and infected with a TREK-1-containing adenovirus. Some virally infected cells were also treated with sipatrigine (10 μM), a TREK-1 blocker. Cell proliferation was assessed using the MTT assay as described in FIG. 3.

Effect on TREK-1 current (human TREK-1)	Compound	Cell proliferation (MTT) of TREK-1-infected NPE [1]
inhibits TREK-1 current	CN1CCN(CCCN2c3ccccc3Sc3ccc(C(F)(F)F)cc32)CC1 [Trifluoperazine]	
activates TREK-1 current	Cc1ccc(Cl)c(Nc2ccccc2C(=O)O)c1Cl [Meclofenamate, Meclofenamic acid]	
	CN1CCN(c2ncc(-c3cc(Cl)cc(Cl)c3Cl)c(N)n2)CC1 [sipatrigine]	no other groups were different
